These results are taken from US20240293551A1, “USE OF ST-TYPE LIPID COMPOUNDS IN PREPARATION OF NUCLEIC ACID DELIVERY REAGENT AND RELATED PRODUCT” (INSTITUTE OF BASIC MEDICAL SCIENCES CHINESE ACADEMY OF …, priority 2021, published 2024).

The subject of this test is PGY-sRNA-26. Nature of the test: In vivo delivery study of lipid-nucleic acid mixture (oral gavage, RT-qPCR of PGY-sRNA-26 in tissues). Set-up: species or system mouse. As to conditions: for delivery efficacy over each tissue and blood tested (broad-spectrum delivery): all tissues and blood tested; for oral delivery of single-stranded sRNA nucleic acids into mouse intestinal tissue: intestine. Put shortly: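 C57BL/6 male mice (~6 weeks, 20-24 g), fasted 12 h, were gavaged with 10 nmol 3′-methylated PGY-sRNA-26 mixed with 100 μg lipid (heated 90° C. 15 min), versus saline or free sRNA (n=4 each). After 12 h, blood and tissues were Trizol-extracted; sRNA quantified by stem-loop RT-qPCR relative to U6.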
(In general: In qPCR the cycle at which signal appears reflects the starting amount.)

[1] abbreviates: C57BL/6 mice, gavage, 100 μg lipid: 10 nmol PGY-sRNA-26, 12 hours.
The mark [2] stands for this setting: C57BL/6 mice, gavage, 100 μg lipid: 10 nmol PGY-sRNA-26, 12 hours, blood.
[3] abbreviates: C57BL/6 mice, gavage, 100 μg lipid: 10 nmol PGY-sRNA-26, 12 hours, femur.

Regarding `C[C@]12CC[C@H]3[C@@H](CCC4=CC(=O)CC[C@@]43CO)[C@@H]1CCC2=O` [Lipid 567, 19-hydroxy-androstane-4-ene-3,17-dione (8R,9S,10S,13S,14S)-10-(hydroxymethyl)-13-methyl-2,6,7,8,9,11,12,14,15,16-decahydro-1H-cyclopenta[a]phenanthrene-3,17-dione], under setting [1], the “delivery efficacy over each tissue and blood tested (broad-spectrum delivery)” value is reported as “exhibited the best delivery efficacy”; the “oral delivery of single-stranded sRNA nucleic acids into mouse brain tissue” value is “can effectively orally deliver”; the “oral delivery of single-stranded sRNA nucleic acids into mouse heart tissue” value is “can effectively orally deliver”; the “oral delivery of single-stranded sRNA nucleic acids into mouse intestinal tissue” value was “can effectively orally deliver”. Besides, under setting [1], the “oral delivery of single-stranded sRNA nucleic acids into mouse kidney tissue” value is recorded as “can effectively orally deliver”, the “oral delivery of single-stranded sRNA nucleic acids into mouse liver tissue” value is listed as “can effectively orally deliver”, the “oral delivery of single-stranded sRNA nucleic acids into mouse lung tissue” value was “can effectively orally deliver” and the “oral delivery of single-stranded sRNA nucleic acids into mouse spleen tissue” value is listed as “can effectively orally deliver”. Under setting [1], the “oral delivery of single-stranded sRNA nucleic acids into mouse stomach tissue” value was “can effectively orally deliver”. The “oral delivery of single-stranded sRNA nucleic acids into mouse blood” value under setting [2] is recorded as “can effectively orally deliver”. Besides, the “oral delivery of single-stranded sRNA nucleic acids into mouse femur” value under setting [3] is given as “can effectively orally deliver”.
On to `CCC(=O)O[C@H]1CC[C@H]2[C@@H]3CCC4=CC(=O)CC[C@]4(C)[C@H]3CC[C@]12C` [Lipid 568], for which, under setting [1], the “delivery efficacy over each tissue and blood tested (broad-spectrum delivery)” value is on record as “exhibited the best delivery efficacy”; the “oral delivery of single-stranded sRNA nucleic acids into mouse brain tissue” value is “can effectively orally deliver”; the “oral delivery of single-stranded sRNA nucleic acids into mouse heart tissue” value is reported as “can effectively orally deliver”; the “oral delivery of single-stranded sRNA nucleic acids into mouse intestinal tissue” value is given as “can effectively orally deliver”. Under setting [1], the “oral delivery of single-stranded sRNA nucleic acids into mouse kidney tissue” value is listed as “can effectively orally deliver”, the “oral delivery of single-stranded sRNA nucleic acids into mouse liver tissue” value is on record as “can effectively orally deliver”, the “oral delivery of single-stranded sRNA nucleic acids into mouse lung tissue” value was “can effectively orally deliver” and the “oral delivery of single-stranded sRNA nucleic acids into mouse spleen tissue” value was “can effectively orally deliver”. Besides, under setting [1], the “oral delivery of single-stranded sRNA nucleic acids into mouse stomach tissue” value is “can effectively orally deliver”. The “oral delivery of single-stranded sRNA nucleic acids into mouse blood” value under setting [2] was “can effectively orally deliver”. Also, the “oral delivery of single-stranded sRNA nucleic acids into mouse femur” value under setting [3] was “can effectively orally deliver”.
Take `C=C1/C(=C\C=C2/CCC[C@]3(C)[C@@H]([C@H](C)/C=C/[C@H](C)C(C)C)CC[C@@H]23)C[C@@H](O)C[C@@H]1O` [Lipid 569]: under setting [1], the “delivery efficacy over each tissue and blood tested (broad-spectrum delivery)” value is “exhibited the best delivery efficacy”; the “oral delivery of single-stranded sRNA nucleic acids into mouse brain tissue” value is recorded as “can effectively orally deliver”; the “oral delivery of single-stranded sRNA nucleic acids into mouse heart tissue” value was “can effectively orally deliver”; the “oral delivery of single-stranded sRNA nucleic acids into mouse intestinal tissue” value is “can effectively orally deliver”. Under setting [1], the “oral delivery of single-stranded sRNA nucleic acids into mouse kidney tissue” value is listed as “can effectively orally deliver”, the “oral delivery of single-stranded sRNA nucleic acids into mouse liver tissue” value is reported as “can effectively orally deliver”, the “oral delivery of single-stranded sRNA nucleic acids into mouse lung tissue” value is “can effectively orally deliver” and the “oral delivery of single-stranded sRNA nucleic acids into mouse spleen tissue” value is given as “can effectively orally deliver”. Moreover, the “oral delivery of single-stranded sRNA nucleic acids into mouse stomach tissue” value under setting [1] is reported as “can effectively orally deliver”. Besides, the “oral delivery of single-stranded sRNA nucleic acids into mouse blood” value under setting [2] is “can effectively orally deliver”. For the same compound, the “oral delivery of single-stranded sRNA nucleic acids into mouse femur” value under setting [3] is on record as “can effectively orally deliver”.
With `C=C1/C(=C\C=C2/CCC[C@]3(C)[C@@H]([C@H](C)/C=C/[C@H](C)C(C)(C)O)CC[C@@H]23)C[C@@H](O)C[C@@H]1O` [Lipid 570], under setting [1], the “delivery efficacy over each tissue and blood tested (broad-spectrum delivery)” value is given as “exhibited the best delivery efficacy”; the “oral delivery of single-stranded sRNA nucleic acids into mouse brain tissue” value is listed as “can effectively orally deliver”; the “oral delivery of single-stranded sRNA nucleic acids into mouse heart tissue” value is recorded as “can effectively orally deliver”; the “oral delivery of single-stranded sRNA nucleic acids into mouse intestinal tissue” value is “can effectively orally deliver”. Besides, under setting [1], the “oral delivery of single-stranded sRNA nucleic acids into mouse kidney tissue” value is “can effectively orally deliver”, the “oral delivery of single-stranded sRNA nucleic acids into mouse liver tissue” value is “can effectively orally deliver”, the “oral delivery of single-stranded sRNA nucleic acids into mouse lung tissue” value is reported as “can effectively orally deliver” and the “oral delivery of single-stranded sRNA nucleic acids into mouse spleen tissue” value is recorded as “can effectively orally deliver”. Under setting [1], the “oral delivery of single-stranded sRNA nucleic acids into mouse stomach tissue” value is listed as “can effectively orally deliver”. Moreover, under setting [2], the “oral delivery of single-stranded sRNA nucleic acids into mouse blood” value was “can effectively orally deliver”. Further, the “oral delivery of single-stranded sRNA nucleic acids into mouse femur” value under setting [3] is on record as “can effectively orally deliver”.
Turning to `C=C1CC[C@H](O)C/C1=C/C=C1\CCC[C@]2(C)[C@@H]([C@H](C)CCCC(C)(C)O)CC[C@@H]12` [Lipid 571], under setting [2], the “oral delivery of single-stranded sRNA nucleic acids into mouse blood” value is on record as “can effectively orally deliver”. Under setting [1], the “oral delivery of single-stranded sRNA nucleic acids into mouse brain tissue” value was “can effectively orally deliver”, the “oral delivery of single-stranded sRNA nucleic acids into mouse heart tissue” value is given as “can effectively orally deliver”, the “oral delivery of single-stranded sRNA nucleic acids into mouse intestinal tissue” value is “can effectively orally deliver” and the “oral delivery of single-stranded sRNA nucleic acids into mouse kidney tissue” value is listed as “can effectively orally deliver”. Also, under setting [1], the “oral delivery of single-stranded sRNA nucleic acids into mouse liver tissue” value was “can effectively orally deliver”, the “oral delivery of single-stranded sRNA nucleic acids into mouse lung tissue” value is listed as “can effectively orally deliver”, the “oral delivery of single-stranded sRNA nucleic acids into mouse spleen tissue” value was “can effectively orally deliver” and the “oral delivery of single-stranded sRNA nucleic acids into mouse stomach tissue” value was “can effectively orally deliver”. The “oral delivery of single-stranded sRNA nucleic acids into mouse femur” value under setting [3] is reported as “can effectively orally deliver”.
Turning to `CC(=O)[C@H]1CC[C@H]2[C@@H]3CCC4=CC(=O)CC[C@]4(C)[C@H]3CC[C@]12C` [Lipid 575], under setting [1], the “delivery efficacy over each tissue and blood tested (broad-spectrum delivery)” value was “exhibited the best delivery efficacy”; the “oral delivery of single-stranded sRNA nucleic acids into mouse brain tissue” value is reported as “can effectively orally deliver”; the “oral delivery of single-stranded sRNA nucleic acids into mouse heart tissue” value is given as “can effectively orally deliver”; the “oral delivery of single-stranded sRNA nucleic acids into mouse intestinal tissue” value was “can effectively orally deliver”. Further, under setting [1], the “oral delivery of single-stranded sRNA nucleic acids into mouse kidney tissue” value is on record as “can effectively orally deliver”, the “oral delivery of single-stranded sRNA nucleic acids into mouse liver tissue” value was “can effectively orally deliver”, the “oral delivery of single-stranded sRNA nucleic acids into mouse lung tissue” value is on record as “can effectively orally deliver” and the “oral delivery of single-stranded sRNA nucleic acids into mouse spleen tissue” value is “can effectively orally deliver”. Also, the “oral delivery of single-stranded sRNA nucleic acids into mouse stomach tissue” value under setting [1] was “can effectively orally deliver”. Besides, under setting [2], the “oral delivery of single-stranded sRNA nucleic acids into mouse blood” value is listed as “can effectively orally deliver”. For the same compound, the “oral delivery of single-stranded sRNA nucleic acids into mouse femur” value under setting [3] is “can effectively orally deliver”.
As to `C[C@H](CCC(=O)O)[C@H]1CC[C@H]2[C@@H]3CC[C@@H]4C[C@H](O)CC[C@]4(C)[C@H]3CC[C@]12C` [Lipid 577], the “oral delivery of single-stranded sRNA nucleic acids into mouse blood” value under setting [2] was “can effectively orally deliver”. Under setting [1], the “oral delivery of single-stranded sRNA nucleic acids into mouse brain tissue” value is “can effectively orally deliver”, the “oral delivery of single-stranded sRNA nucleic acids into mouse heart tissue” value is on record as “can effectively orally deliver”, the “oral delivery of single-stranded sRNA nucleic acids into mouse intestinal tissue” value was “can effectively orally deliver” and the “oral delivery of single-stranded sRNA nucleic acids into mouse kidney tissue” value was “can effectively orally deliver”. In addition, under setting [1], the “oral delivery of single-stranded sRNA nucleic acids into mouse liver tissue” value is “can effectively orally deliver”, the “oral delivery of single-stranded sRNA nucleic acids into mouse lung tissue” value is given as “can effectively orally deliver” and the “oral delivery of single-stranded sRNA nucleic acids into mouse stomach tissue” value is on record as “can effectively orally deliver”. The “oral delivery of single-stranded sRNA nucleic acids into mouse femur” value under setting [3] is “can effectively orally deliver”.
Take `C[C@]12CC[C@H]3[C@@H](CCC4=CC(=O)CC[C@@]43C)[C@@H]1CC[C@@H]2O` [Lipid 579]: where the note is “mouse, in vivo, po”, the “oral delivery of single-stranded sRNA nucleic acids into mouse blood” value was “can effectively orally deliver” and the “oral delivery of single-stranded sRNA nucleic acids into mouse femur” value is recorded as “can effectively orally deliver”.
